Data taken from patent publication US7763604B2, “Methods for administration of a farnesyl dibenzodiazepinone” (Thallion Pharma Ceuticals, Inc., priority 2005, dated 2010).

Tests used:
[1] = system: P388 murine leukemia cells; assay: murine P388 leukemia model, survival; assay type: in vivo; conditions: group 2, IV 50 mg/kg in PEG-PG formulation, 10 mice per group
Protocol: Formulation: The compound of Formula I is first dissolved in 1 volume of 90% propylene glycol (PG). This is followed by the addition of 2 volumes of 45% polyethylene glycol 400 (PEG 400). The volume ratio of PEG 400/PG/water is respectively 30:30:40. Compound is injected in a volume of 10 mL/kg.
DBA/2 female mice (6 weeks of age) were injected intraperitoneally (IP) with 1×10^6 P388 murine leukemia cells (day 0). […]
Mice body weights were recorded twice a week. Lethality and behaviour of animals were recorded every day. […] The results are expressed as percent of mean survival time of treated animals over the mean survival time of the control group (treated vs control, T/C %) and as increase life span (mean survival time of treated animals minus that of control animals over the mean survival time of the control group; ILS %).

[2] = population pharmacokinetic analysis, mouse (IV); assay type: in vivo; conditions: population PK
Protocol: (§1) An analysis was performed to derive allometric equations for Formula I pharmacokinetic parameters using Formula I plasma concentration-time data from three species, including mouse, rat, and monkey, and to estimate human pharmacokinetic parameters from those allometric equations.
(§2) Plasma concentrations of Formula I were obtained from mice, rats, and monkeys following intravenous injection or continuous infusion. Formula I pharmacokinetic parameters in mice, rats, and monkeys were estimated using population pharmacokinetic analysis, a function of the software program NONMEM™ (version 5). Typical population pharmacokinetic parameters for Formula I in humans were extrapolated from allometric equations that were derived from pharmacokinetic parameters estimated in the three animal species.
(§3) A two-compartment model with a first-order elimination from the central compartment adequately described Formula I plasma concentration-time profiles following intravenous bolus injection (30 mg/kg) in mice and rats, 7-day continuous infusion in rats (50 to 170 mg/kg/day), and 14-day continuous infusion in monkeys (5 to 30 mg/kg/day).

[3] = population pharmacokinetic analysis, monkey (CIV); assay type: in vivo; set-up: mean clearance: unit not given here; conditions: for mean clearance: monkeys, 14-day continuous infusion
Protocol: as §1, §2, §3
Application of a two-compartment model with Michaelis-Menten elimination better described the concentration data in monkeys than the linear model. Because the target concentration in humans is 2 μM, at which linear pharmacokinetics is assumed, all simulations for human plasma concentrations were performed based on a two-compartment model with linear first-order elimination.

[4] = system: rat glioma (C6) tumor xenograft; assay: rat C6 glioblastoma subcutaneous tumor model, antitumor efficacy; assay type: in vivo, female athymic (nu/nu) nude mice
Protocol: The rat C6 glioblastoma antitumor efficacy study was performed at INSERM U318 (Grenoble, France). The rat C6 glioblastoma subcutaneous tumor model is based on the use of a rat C6 cell line obtained from a rat glial tumor induced by N-nitrosomethylurea (Benda et al. (1968), Science, vol 161, 370-371). These animal studies were done according to ethical guidelines of animal experimentation (Charte du comité d'éthique du CNRS, 2003) and the English “Guidelines for the welfare of animals in experimental neoplasia (Second Edition)” from the United Kingdom Coordinating Committee on Cancer Research (UKCCCR) (Workman et al. (1998), Br. J. Cancer, vol 77, no 1, 1-10). On each dosing day, Formula I stock solutions (24 and 40 mg/mL in 20% ethanol, 20% PEG-400 and 60% Tween 80) were diluted with sterile 5% dextrose in water (D5W) to prepare dosing solutions of 6 mg/mL and 10 mg/mL of Formula I in a vehicle consisting of 5% ethanol, 5% PEG-400, 15% Tween-80, and 75% D5W.
For the rat glioma antitumor efficacy study, female athymic (nu/nu) nude mice (6-7 weeks of age) were inoculated SC with 5×10^6 C6 cells (day 0). Tumor bearing animals were randomized (10 per group) when tumors were palpable (day 6). Group 1 (control group) received drug-free vehicle (5% ethanol, 5% PEG-400, 15% Tween-80, and 75% D5W) IP (5 mL/kg), once daily on days 6-18 (q1d×13). Group 2 received Formula I (6 mg/mL) IP at 20 mg/kg, once daily on days 6 to 13 and then at 10 mg/kg once daily on days 14 to 18. Group 3 received Formula I (6 mg/mL) SC at 30 mg/kg, once daily on days 6 to 13 and then at 15 mg/kg once daily on days 14 to 18. Group 4 received Formula I (10 mg/mL) IV at 100 mg/kg q1d×5 for 2 weeks. Each animal was euthanized when its tumor reached the predetermined endpoint size (˜2,500 mm^3) or at the end of the study (D18). Treatment period was over 13 days, from day 6 to day 18, post tumor cell inoculation. Tumor growth inhibition (TGI) was calculated on day 16 post tumor cell inoculation, at which time some animals from the vehicle control group had to be sacrificed due to tumor burden.
In this model and the models of Examples 3, 6 and 7, tumor growth was followed every other day by measuring tumor length (L) and width (W) using a calliper. Measurements were converted to tumor volumes (TV; mm^3) using the standard formula, TV=(L×W^2)/2. Tumor volume at day n was expressed as relative tumor volume (RTV) according to the following formula RTV=TVn/TV0, where TVn is the tumor volume at day n and TV0 is the tumor volume at day 0. The percentage of tumor growth inhibition (% TGI) was determined by 1−(mean RTV of treated group/mean RTV of control group)×100. […] Statistical analysis was calculated by the two-tailed unpaired t test using the Prism software. […]

For `CC(C)=CCC/C(C)=C/CC/C(C)=C/CN1C(=O)c2cccc(O)c2Nc2c(O)cc(O)cc21` [Formula I, 10-farnesyl-4,6,8-trihydroxy-dibenzodiazepin-11-one], the “mice died one day after treatment due to formulation toxicity” value [1] was 3 mice, the Ke [2] was 8.466 h⁻¹ and the Ke ([3]; Monkey (CIV), population PK) was 2.172 h⁻¹. The mean clearance ([3]; 5 mg/kg/day) was 0.63, the mean clearance ([3]; 15 mg/kg/day) was 0.57 and the mean clearance ([3]; 30 mg/kg/day) was 0.23. The “Maximum body weight loss” value ([4]; IP 20 mg/kg (Q1D×8) followed by 10 mg/kg (Q1D×7), Day 13) was 15%, the “tumor volume relative to the vehicle control” value ([4]; IV bolus 100 mg/kg (Q1D×5) over 2 weeks) was “No significant difference in tumor volume” and the body weight loss ([4]; IV group, 100 mg/kg (Q1D×5) over 2 weeks) was “No significant body weight loss”. For the same compound, the “Maximum body weight loss” value ([4]; SC 30 mg/kg (Q1D×8) followed by 15 mg/kg (Q1D×7)) was 11%.
